pIC50: −log10 of the molar value.
How the values were obtained:
Trypanosoma cruzi [1] = experiment: Percentage delyse against amastigote forms of Y strain of Trypanosoma cruzi at 8 uM; type: functional
Trypanosoma cruzi [2] = experiment: Trypanocidal activity against amastigote forms of Y strain of Trypanosoma cruzi; type: functional, organism-based
Trypanosoma cruzi [3] = experiment: Percentage delyse against amastigote forms of Y strain of Trypanosoma cruzi at 2 uM; type: functional
Trypanosoma cruzi [4] = experiment: Percentage delyse against amastigote forms of Y strain of Trypanosoma cruzi at 0.5 uM; type: functional
Trypanosoma cruzi [5] = experiment: Percentage delyse against amastigote forms of Y strain of Trypanosoma cruzi at 32 uM; type: functional

| SMILES | Delyse (Trypanosoma cruzi [1]) | pIC50 (Trypanosoma cruzi [2]) | Delyse (Trypanosoma cruzi [3]) | Delyse (Trypanosoma cruzi [4]) | Delyse (Trypanosoma cruzi [5]) |
| --- | --- | --- | --- | --- | --- |
| CC(=O)OC1OC[C@H](Cc2ccc3c(c2)OCO3)[C@@H]1Cc1ccc2c(c1)OCO2 (stereo not given in full) | 29% | ~1.82 | 26% | 14.5% | 26.4% |
| O=C1OC[C@H](Cc2ccc3c(c2)OCO3)[C@@H]1Cc1ccc2c(c1)OCO2 | 57.6% | 6.15 | 57% | 47.6% | 63.6% |
| O=C1OC[C@H](Cc2cc3c(cc2[N+](=O)[O-])OCO3)[C@@H]1Cc1cc2c(cc1[N+](=O)[O-])OCO2 | 38.9% | 4.02 | 48.7% | 34.6% | 48.5% |
| CN(C)CCOC1OC[C@H](Cc2ccc3c(c2)OCO3)[C@@H]1Cc1ccc2c(c1)OCO2 (stereo not given in full) | 50.8% | 5.33 | 55.4% | 33.6% | 57.8% |
| c1ccc(COC2OC[C@H](Cc3ccc4c(c3)OCO4)[C@@H]2Cc2ccc3c(c2)OCO3)cc1 (stereo not given in full) | 46.8% | 5.24 | 38% | 37% | 68.8% |
| O=C(Cn1ccnc1[N+](=O)[O-])NCc1ccccc1 [BENZNIDAZOLE] | 69% | 6.10 | 67% | 38.4% | 68% |

Reference: ChEMBL document CHEMBL1142828, “Trypanocidal activity of (-)-cubebin derivatives against free amastigote forms of Trypanosoma cruzi” (Bioorg Med Chem Lett, 2005)
